Test results as given in paper PMC12349723, “Computationally accelerated identification of P-glycoprotein inhibitors” (PLOS One, 2025).
Several values for one entry are separate records, joined by “and”; a condition that tells them apart may be missing. Equal values may be shown once.

Key:
[1] = test system: DU145 cells; experiment: MTT viability assay, non-P-gp overexpressing DU145 parental line, with or without PTX; type: cell-based, human
Description: The chemotherapeutic sensitive DU145 human prostate cancer cells and the multidrug resistant sub-line, DU145-TXR, were generous gifts from Dr. Evan Keller (University of Michigan, Ann Arbor, MI). The MDR, P-gp overexpressing DU145-TXR cells were maintained under positive selection pressure by supplementing complete medium with 10 nM paclitaxel (Acros Organics, NJ). […] The MDR, P-gp overexpressing A2780-ADR cell line was maintained under positive selection pressure by supplementing complete medium with 100 nM doxorubicin (Fisher Scientific, NJ). The non-cancerous HFL1 (human lung fibroblast) cell line cell line was a generous gift from Dr. Robert Harrod (Southern Methodist University, Dallas, TX) and was maintained in complete F12K media consisting of F12K with 10% fetal bovine serum, 100 U/mL penicillin, and 100 µg/mL streptomycin (Gibco). Flasks and 96 well plates that were used with the non-cancerous line HFL1 were pre-treated with 0.1 mg/ml Collagen Type 1 (Gibco) and rinsed with PBS (Fisher).
Culture of the DU145, DU145-TXR, and HFL1 cell lines was performed as described in [8]. Culture of the A2780 and A2780-ADR cell lines was performed as described in [9]. MTT assays were performed as described in [8] with minor modifications. […] Data represent the mean of two separate experiments, with n = 3 samples per experiment (n = 6 total) (S4 Table).
MTT assays measure the reduction of yellow, water soluble 3-(4,5-dimethylthiazol-2-yl)-2,5-diphenyltetrazolium bromide (MTT) to blue, insoluble formazan crystals by cellular reductase processes in living cells. Cells were trypsinized from monolayers and seeded in complete medium in 96 well plates. Cancerous cell lines (DU145, DU145-TXR, A2780, A2780-ADR) were seeded at 3,000 cells per well in complete RPMI medium. The non-cancerous HFL1 line was seeded at 4,000 cells per well in complete F12K medium, in collagen-treated plates (Collagen Type 1, Gibco). Cells were incubated with experimental compounds for 48 hours at 37 °C and 5% CO2 in a humidified incubator. At 48 hours, MTT was added (20 µL/well of 5 mg/mL MTT in PBS) to each well. After incubation for 4 hours, the media was removed, and the formazan crystals were dissolved in 100 µL DMSO per well. Plates containing the semi-adherent A2780 or A2780-ADR lines were spun at 1400 rpm for 3 minutes prior to aspiration of media, and the addition of DMSO. Plates were shaken for 10 minutes at 500 rpm on an Orbital shaker (LabDoctor from MidSci, St Louis, MO). The absorbance was measured at 570 nm using a Bio-Tek Cytation 5 (Bio-Tek, Winooski, VT). The measured absorbance value was correlated with the number of metabolically active cells in that well, corrected for absorbance of media. The percent of cell viability (termed ‘survival’ here) was calculated as a percentage of survival of the control condition, which refers to vehicle-treated (DMSO as vehicle) cells, or vehicle-and-chemotherapeutic-treated cells, if testing a compound’s ability to re-sensitize cells to a chemotherapeutic. Percent survival was calculated using the following equation:
% Survival=100 × absorbance of experimental cells/mean absorbance of control treated cells
For DU145-TXR, DU145, HFL1 and A2780 cells – data are the mean ± one standard deviation, 8 samples per compound, from at least two independent trials per compound. […] For A2780-ADR cells, data are the mean ± one standard deviation with 12 samples per compound, from at least two independent trials per compound.
67 compounds were chosen from computational screens for testing in vitro. A) DU145-TXR cells were exposed to 15 µM experimental compound with or without 500 nM of the P-gp substrate and chemotherapeutic paclitaxel (PTX).

[2] = SWISS-ADME computational analysis of chemical properties; conditions: predicted aqueous solubility compared to that observed in the laboratory
Source text: (§1) Identifying P-gp inhibitors that are not transport substrates remains inherently challenging. To that end, computational tools such as the SWISS-ADME server attempt to use a molecule’s unique chemical and structural characteristics to predict whether it is likely to be a P-gp transport substrate. Our LC-MS/MS assays allowed us to retroactively test the validity of predictions from SWISS-ADME. […] Alternative identifiers for the molecules identified in this study are shown in S7 Table.
(§2) S1 Table. Known P-gp Inhibitors and Predicted Chemical Properties. A non-exhaustive list of known P-gp inhibitors and their selected chemical properties ^[64, 65]. Clinical trial outcomes were adapted from ^[10, 11]. Compounds were evaluated using the SWISS-ADME server ^[54]. […] “Predicted P-gp Substrate” - predicted by SWISS-ADME to be a transport substrate of P-gp. “Known P-gp Substrate” – In addition to being P-gp inhibitors, these molecules are: known transport substrates of P-gp, known non-transport substrates of P-gp, unknown whether it is a transport substrate of P-gp ^[66-68]. If the molecule is designated in a specific generation of P-gp inhibitors - First Generation P-gp inhibitors, Second generation P-gp inhibitors, Third generation P-gp inhibitors.

[3] = test system: P-gp; experiment: SWISS-ADME prediction of P-gp transport substrate; conditions: prediction compared to the LC-MS/MS intracellular accumulation data
Source text: as §1, §2

[4] = DU145 cells, 48 h, single samples, 2 trials x 4 samples

O=C(c1nc(-c2ccccn2)no1)N1CCN(c2nsc3ccccc23)CC1 [Compound 124, O=C(N1CCN(CC1)c1nsc2ccccc12)c1nc(no1)-c1ccccn1]
Sensitization of DU145 cells to PTX ([1]; 15 µM compound + PTX vs PTX alone): insignificantly sensitize DU145 cells to PTX
% Survival, Mean, 15 µM compound + 500 nM PTX ([1]; DU145 cells, 48 h, mean of 8 samples): 20.9%
% Survival, 15 µM Compound alone (individual samples) [1, 4]: 85%
% Survival, 15 µM compound + 500 nM PTX (individual samples) [1, 4]: 17% and 26%
viability at 15 µM ([1]; Homo sapiens, DU-145, 48 h, DU145 cells, 48 h, mean of 8 samples, read-out: % Survival, Mean, 15 µM Compound alone): 76.9%
Correct Water Solubility Prediction? [2]: Yes
Correct P-gp Substrate Prediction? [3]: No
